In the kinase profiling compilation of Christmann-Franck et al. (2016):

Assays:
Experiment in all cases: radiometric filter-binding kinase assay, Kinase HotSpot
Conditions in all cases: compound 0.5 µM; ATP 10 µM
[1] = target: PAK2 (human) (UniProt Q13177)
[2] = target: CDC42BPB (human) (UniProt Q9Y5S2)
[3] = target: SGK3 (human) (UniProt Q96BR1)
[4] = target: PRKG2 (human) (UniProt Q13237)
[5] = target: PNCK (human) (UniProt Q6P2M8)
[6] = target: MAPK14 (human) (UniProt Q16539)
[7] = target: PAK3 (human) (UniProt O75914)
[8] = target: GRK5 (human) (UniProt P34947)
[9] = target: MAPK9 (human) (UniProt P45984)
[10] = target: AXL (human) (UniProt P30530)
[11] = target: RPS6KA2 KD1 KD2 (human) (UniProt Q15349)
[12] = target: DAPK3 (human) (UniProt O43293)
[13] = target: RPS6KA3 KD1 KD2 (human) (UniProt P51812)
[14] = target: CDK3 CCNE1 (human) (UniProt Q00526+P24864)
[15] = target: TTK (human) (UniProt P33981)
[16] = target: KIT (human) (UniProt P10721)
[17] = target: ADRBK2 (human) (UniProt P35626)
[18] = target: SIK2 (human) (UniProt Q9H0K1)
[19] = target: ABL2 (human) (UniProt P42684)
[20] = target: GSK3B (human) (UniProt P49841)
[21] = target: FER (human) (UniProt P16591)
[22] = target: CSNK1G1 (human) (UniProt Q9HCP0)
[23] = target: MAPKAPK3 (human) (UniProt Q16644)
[24] = target: FGR (human) (UniProt P09769)
[25] = target: PBK (human) (UniProt Q96KB5)
[26] = target: LTK (human) (UniProt P29376)
[27] = target: PRKCB2 (human) (UniProt P05771)
[28] = target: CAMK2A (human) (UniProt Q9UQM7)
[29] = target: PDGFRA (human) (UniProt P16234)
[30] = target: SRC (human) (UniProt P12931)
[31] = target: PHKG1 (human) (UniProt Q16816)
[32] = target: SRPK3 (human) (UniProt Q9UPE1)
[33] = target: CAMK2G (human) (UniProt Q13555)
[34] = target: TXK (human) (UniProt P42681)
[35] = target: TGFBR1 (human) (UniProt P36897)
[36] = target: ITK (human) (UniProt Q08881)
[37] = target: PRKCZ (human) (UniProt Q05513)
[38] = target: DDR2 (human) (UniProt Q16832)
[39] = target: IRAK1 (human) (UniProt P51617)
[40] = target: ERBB4 (human) (UniProt Q15303)
[41] = target: NLK (human) (UniProt Q9UBE8)
[42] = target: JAK1 JH1 catalytic (human) (UniProt P23458)

PHKG1 (human), sequence (Q16816 whole entry, looked up): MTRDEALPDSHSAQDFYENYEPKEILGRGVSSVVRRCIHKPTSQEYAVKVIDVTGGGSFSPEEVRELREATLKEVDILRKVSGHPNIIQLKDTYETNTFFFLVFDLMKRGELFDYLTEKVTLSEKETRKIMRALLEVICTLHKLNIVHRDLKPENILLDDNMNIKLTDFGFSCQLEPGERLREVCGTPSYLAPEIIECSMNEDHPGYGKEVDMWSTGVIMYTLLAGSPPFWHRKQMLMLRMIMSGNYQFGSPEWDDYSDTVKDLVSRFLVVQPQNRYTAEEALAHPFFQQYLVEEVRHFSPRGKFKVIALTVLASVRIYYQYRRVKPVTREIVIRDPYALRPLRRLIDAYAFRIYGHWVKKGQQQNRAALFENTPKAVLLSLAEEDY
TGFBR1 (human), sequence (P36897 whole entry, looked up): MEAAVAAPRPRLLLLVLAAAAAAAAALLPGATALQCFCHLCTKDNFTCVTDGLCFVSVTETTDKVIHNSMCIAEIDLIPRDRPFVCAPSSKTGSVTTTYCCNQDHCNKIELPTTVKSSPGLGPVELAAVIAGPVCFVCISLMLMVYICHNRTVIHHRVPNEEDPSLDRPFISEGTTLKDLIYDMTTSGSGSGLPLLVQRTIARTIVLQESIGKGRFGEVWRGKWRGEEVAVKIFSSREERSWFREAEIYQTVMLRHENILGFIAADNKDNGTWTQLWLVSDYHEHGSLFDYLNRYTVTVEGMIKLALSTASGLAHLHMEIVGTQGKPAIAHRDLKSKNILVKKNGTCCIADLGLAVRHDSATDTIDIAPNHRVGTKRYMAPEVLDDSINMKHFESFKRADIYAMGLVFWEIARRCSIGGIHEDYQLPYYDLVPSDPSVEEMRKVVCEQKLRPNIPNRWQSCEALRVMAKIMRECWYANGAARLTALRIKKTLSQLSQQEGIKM
LTK (human), sequence (P29376 whole entry, looked up): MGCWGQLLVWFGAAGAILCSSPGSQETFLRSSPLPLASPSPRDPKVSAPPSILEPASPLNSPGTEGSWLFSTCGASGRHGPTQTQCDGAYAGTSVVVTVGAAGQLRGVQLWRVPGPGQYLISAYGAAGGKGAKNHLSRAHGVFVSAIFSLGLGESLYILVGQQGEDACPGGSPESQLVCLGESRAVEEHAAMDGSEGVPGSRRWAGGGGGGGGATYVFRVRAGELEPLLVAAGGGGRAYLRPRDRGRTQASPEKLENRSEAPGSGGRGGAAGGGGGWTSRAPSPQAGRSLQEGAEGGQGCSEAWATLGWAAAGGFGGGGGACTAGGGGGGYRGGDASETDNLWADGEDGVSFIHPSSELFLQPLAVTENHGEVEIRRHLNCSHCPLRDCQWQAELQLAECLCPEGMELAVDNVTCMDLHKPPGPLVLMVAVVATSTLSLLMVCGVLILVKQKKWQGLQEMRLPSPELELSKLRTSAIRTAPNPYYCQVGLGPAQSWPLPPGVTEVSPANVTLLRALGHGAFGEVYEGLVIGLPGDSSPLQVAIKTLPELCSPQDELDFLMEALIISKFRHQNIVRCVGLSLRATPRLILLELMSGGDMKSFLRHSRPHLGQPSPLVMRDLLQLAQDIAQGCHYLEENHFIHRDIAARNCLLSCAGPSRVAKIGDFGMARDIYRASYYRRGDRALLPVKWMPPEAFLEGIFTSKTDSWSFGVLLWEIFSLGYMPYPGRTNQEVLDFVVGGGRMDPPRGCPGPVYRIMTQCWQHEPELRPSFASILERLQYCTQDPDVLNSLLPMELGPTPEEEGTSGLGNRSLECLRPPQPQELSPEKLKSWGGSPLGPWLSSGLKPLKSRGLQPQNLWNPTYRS
PRKCB2 (human), sequence (P05771 whole entry, looked up): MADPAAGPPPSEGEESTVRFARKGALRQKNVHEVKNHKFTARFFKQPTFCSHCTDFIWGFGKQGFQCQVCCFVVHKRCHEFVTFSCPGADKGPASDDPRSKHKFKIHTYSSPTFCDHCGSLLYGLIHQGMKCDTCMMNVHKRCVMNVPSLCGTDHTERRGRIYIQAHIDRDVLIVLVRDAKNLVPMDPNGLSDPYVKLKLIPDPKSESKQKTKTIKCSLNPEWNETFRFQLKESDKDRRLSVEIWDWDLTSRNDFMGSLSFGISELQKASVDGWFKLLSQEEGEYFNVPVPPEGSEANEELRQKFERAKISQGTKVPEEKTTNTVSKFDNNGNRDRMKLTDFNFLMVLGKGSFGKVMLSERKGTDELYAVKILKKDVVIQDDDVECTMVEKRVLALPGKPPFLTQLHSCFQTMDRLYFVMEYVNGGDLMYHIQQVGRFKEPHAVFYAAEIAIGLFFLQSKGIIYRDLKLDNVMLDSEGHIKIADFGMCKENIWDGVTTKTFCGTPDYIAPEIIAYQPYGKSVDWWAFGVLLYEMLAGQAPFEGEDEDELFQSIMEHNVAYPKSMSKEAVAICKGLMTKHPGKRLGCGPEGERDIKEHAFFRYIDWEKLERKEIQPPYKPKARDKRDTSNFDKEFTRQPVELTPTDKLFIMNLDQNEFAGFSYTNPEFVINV
MAPK14 (human), sequence (Q16539 whole entry, looked up): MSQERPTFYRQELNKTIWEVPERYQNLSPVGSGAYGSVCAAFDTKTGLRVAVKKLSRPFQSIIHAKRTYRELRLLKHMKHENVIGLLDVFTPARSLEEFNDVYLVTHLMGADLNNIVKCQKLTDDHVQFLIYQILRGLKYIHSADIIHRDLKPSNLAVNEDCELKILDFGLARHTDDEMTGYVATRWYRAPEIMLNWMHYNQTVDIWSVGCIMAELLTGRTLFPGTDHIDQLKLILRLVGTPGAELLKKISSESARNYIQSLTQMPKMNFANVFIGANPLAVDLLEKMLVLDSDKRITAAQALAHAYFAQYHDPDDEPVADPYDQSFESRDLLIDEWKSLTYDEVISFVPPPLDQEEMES
CAMK2G (human), sequence (Q13555 whole entry, looked up): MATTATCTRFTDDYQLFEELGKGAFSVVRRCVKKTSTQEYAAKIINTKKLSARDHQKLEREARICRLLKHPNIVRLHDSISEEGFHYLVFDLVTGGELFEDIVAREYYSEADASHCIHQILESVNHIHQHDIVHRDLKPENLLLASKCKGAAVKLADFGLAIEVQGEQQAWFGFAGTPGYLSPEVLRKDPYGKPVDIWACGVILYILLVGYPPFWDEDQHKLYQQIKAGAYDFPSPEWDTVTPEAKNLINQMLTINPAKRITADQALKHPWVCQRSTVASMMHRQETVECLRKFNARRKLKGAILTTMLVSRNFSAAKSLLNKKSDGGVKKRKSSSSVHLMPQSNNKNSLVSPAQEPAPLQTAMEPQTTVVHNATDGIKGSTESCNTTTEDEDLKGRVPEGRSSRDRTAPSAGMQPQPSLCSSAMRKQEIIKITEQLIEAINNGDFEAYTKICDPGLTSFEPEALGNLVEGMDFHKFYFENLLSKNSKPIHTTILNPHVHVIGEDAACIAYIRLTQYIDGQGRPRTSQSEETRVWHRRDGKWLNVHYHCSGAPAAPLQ
PRKCZ (human), sequence (Q05513 whole entry, looked up): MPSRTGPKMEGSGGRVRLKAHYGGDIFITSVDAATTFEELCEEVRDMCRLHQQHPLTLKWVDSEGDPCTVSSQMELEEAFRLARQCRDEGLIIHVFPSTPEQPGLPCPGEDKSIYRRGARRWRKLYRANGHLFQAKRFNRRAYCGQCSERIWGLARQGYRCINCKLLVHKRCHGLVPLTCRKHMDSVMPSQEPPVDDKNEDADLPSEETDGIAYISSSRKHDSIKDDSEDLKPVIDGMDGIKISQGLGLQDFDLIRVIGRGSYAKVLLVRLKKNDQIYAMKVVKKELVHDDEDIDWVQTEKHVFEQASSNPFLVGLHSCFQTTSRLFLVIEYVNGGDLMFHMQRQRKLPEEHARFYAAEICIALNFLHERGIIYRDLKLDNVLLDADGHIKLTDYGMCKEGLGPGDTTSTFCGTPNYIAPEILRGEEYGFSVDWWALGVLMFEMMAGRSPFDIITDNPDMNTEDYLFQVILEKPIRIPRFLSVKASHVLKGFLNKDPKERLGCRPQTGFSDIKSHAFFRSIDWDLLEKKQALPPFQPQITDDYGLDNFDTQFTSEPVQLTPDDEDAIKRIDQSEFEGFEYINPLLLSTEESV
PDGFRA (human), sequence (P16234 whole entry, looked up): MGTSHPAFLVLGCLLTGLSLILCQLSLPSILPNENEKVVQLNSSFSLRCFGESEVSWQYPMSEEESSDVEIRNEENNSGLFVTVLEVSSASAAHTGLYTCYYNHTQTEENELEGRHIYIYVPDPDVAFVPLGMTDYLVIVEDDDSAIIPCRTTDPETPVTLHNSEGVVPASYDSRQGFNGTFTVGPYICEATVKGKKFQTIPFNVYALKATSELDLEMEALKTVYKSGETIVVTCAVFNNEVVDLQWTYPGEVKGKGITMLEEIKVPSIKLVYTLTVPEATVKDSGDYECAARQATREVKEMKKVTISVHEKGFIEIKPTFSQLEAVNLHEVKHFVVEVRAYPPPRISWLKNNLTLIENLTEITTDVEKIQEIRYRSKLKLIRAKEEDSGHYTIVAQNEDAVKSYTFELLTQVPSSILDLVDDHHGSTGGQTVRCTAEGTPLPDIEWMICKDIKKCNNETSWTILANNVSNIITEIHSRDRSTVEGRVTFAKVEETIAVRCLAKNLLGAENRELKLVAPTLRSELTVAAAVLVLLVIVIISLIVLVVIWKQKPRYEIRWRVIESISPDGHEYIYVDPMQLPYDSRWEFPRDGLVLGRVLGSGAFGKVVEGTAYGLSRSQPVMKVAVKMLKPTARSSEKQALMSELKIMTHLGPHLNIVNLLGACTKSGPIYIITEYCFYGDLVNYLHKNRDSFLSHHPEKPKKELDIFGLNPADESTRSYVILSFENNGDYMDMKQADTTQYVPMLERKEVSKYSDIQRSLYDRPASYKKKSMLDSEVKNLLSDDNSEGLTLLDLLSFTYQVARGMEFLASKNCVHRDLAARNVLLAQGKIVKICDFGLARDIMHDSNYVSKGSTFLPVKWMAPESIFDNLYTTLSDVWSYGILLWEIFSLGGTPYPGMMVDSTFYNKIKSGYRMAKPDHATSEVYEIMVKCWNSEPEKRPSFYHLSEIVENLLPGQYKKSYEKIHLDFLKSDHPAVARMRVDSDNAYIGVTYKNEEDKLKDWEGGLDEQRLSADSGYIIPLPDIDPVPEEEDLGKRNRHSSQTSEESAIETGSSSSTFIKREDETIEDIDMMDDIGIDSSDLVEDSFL

## O=C(NC(NC(=S)Nc1ccc(F)c([N+](=O)[O-])c1)C(Cl)(Cl)Cl)C(c1ccccc1)c1ccccc1 (centres undefined)
[1]
  residual activity: 100%
[2]
  residual activity: 97.2%
[3]
  residual activity: 85.8%
[4]
  residual activity: 96.6%
[5]
  residual activity: 115%
[6]
  residual activity: 101%
[7]
  residual activity: 91.9%
[8]
  residual activity: 105%
[9]
  residual activity: 88.6%
[10]
  residual activity: 112%
[11]
  residual activity: 101%
[12]
  residual activity: 103%
[13]
  residual activity: 96.2%
[14]
  residual activity: 105%
[15]
  residual activity: 96.9%
[16]
  residual activity: 97.2%
[17]
  residual activity: 98.3%
[18]
  residual activity: 112%
[19]
  residual activity: 105%
[20]
  residual activity: 109%
[21]
  residual activity: 104%
[22]
  residual activity: 83.3%
[23]
  residual activity: 106%
[24]
  residual activity: 84.5%
[25]
  residual activity: 116%
[26]
  residual activity: 91.5%
[27]
  residual activity: 107%
[28]
  residual activity: 96%
[29]
  residual activity: 100%
[30]
  residual activity: 96.1%
[31]
  residual activity: 104%
[32]
  residual activity: 98%
[33]
  residual activity: 107%
[34]
  residual activity: 108%
[35]
  residual activity: 92.6%
[36]
  residual activity: 94.9%
[37]
  residual activity: 98%
[38]
  residual activity: 96.4%
[39]
  residual activity: 107%
[40]
  residual activity: 103%
[41]
  residual activity: 106%
[42]
  residual activity: 106%

## Nc1nc(Nc2ccc(S(N)(=O)=O)cc2)nn1C(=S)Nc1c(F)cccc1F
[1]
  residual activity: 26.4%
[2]
  residual activity: 48.1%
[3]
  residual activity: 98.4%
[4]
  residual activity: 61.4%
[5]
  residual activity: 89.1%
[6]
  residual activity: 95.4%
[7]
  residual activity: 35.4%
[8]
  residual activity: 75.6%
[9]
  residual activity: 80.9%
[10]
  residual activity: 34.2%
[11]
  residual activity: 2.08%
[12]
  residual activity: 94.2%
[13]
  residual activity: -0.692%
[14]
  residual activity: -0.912%
[15]
  residual activity: 60.6%
[16]
  residual activity: 78.4%
[17]
  residual activity: 88%
[18]
  residual activity: 16.1%
[19]
  residual activity: 10.5%
[20]
  residual activity: 9.03%
[21]
  residual activity: 21.7%
[22]
  residual activity: 16.7%
[23]
  residual activity: 89.6%
[24]
  residual activity: 17.1%
[25]
  residual activity: 105%
[26]
  residual activity: 27.6%
[27]
  residual activity: 74.5%
[28]
  residual activity: 14.3%
[29]
  residual activity: 56.4%
[30]
  residual activity: 41.6%
[31]
  residual activity: 26%
[32]
  residual activity: 48.7%
[33]
  residual activity: 15.6%
[34]
  residual activity: 85.8%
[35]
  residual activity: 81.8%
[36]
  residual activity: 61%
[37]
  residual activity: 83.7%
[38]
  residual activity: 130%
[39]
  residual activity: 16.9%
[40]
  residual activity: 98%
[41]
  residual activity: 45.1%
[42]
  residual activity: 4.86%
